Among the data in patent publication US20240409585A1, “MACROCYCLIC IMMUNOMODULATORS” (priority 2021, published 2024) are IC50 values, retold here.

Broadly, the IC50 is the concentration needed to halve the response being measured.

Molecules are shown by their SMILES. Bridge positions count the residues as written; N and C are the ends. Square brackets hold non-standard residues; d marks the D form. Peptide text beside a SMILES is read from it. * marks the point of attachment. ξ: configuration not given here. Tyr(3-NO2) = N[C@@H](Cc1ccc(O)c([N+](=O)[O-])c1)C(=O)O; Phe(4-COOH) = N[C@@H](Cc1ccc(C(=O)O)cc1)C(=O)O; Bip = N[C@@H](Cc1ccc(-c2ccccc2)cc1)C(=O)O; Phe(4-CN) = N#Cc1ccc(C[C@H](N)C(=O)O)cc1; Phe(3-Me) = Cc1cccc(C[C@H](N)C(=O)O)c1; hTyr = N[C@@H](CCc1ccc(O)cc1)C(=O)O; Val(3-OH) = CC(C)(O)[C@H](N)C(=O)O; hArg = N=C(N)NCCCC[C@H](N)C(=O)O; 4Pal = N[C@@H](Cc1ccncc1)C(=O)O; Cha = N[C@@H](CC1CCCCC1)C(=O)O; Cit = NC(=O)NCCC[C@H](N)C(=O)O; Thr(3ξ) = CC(O)[C@H](N)C(=O)O; Pip = O=C(O)[C@@H]1CCCCN1; Carboxymethyl = O=C(O)C*; NMeA = CN[C@@H](C)C(=O)O; Dab = NCC[C@H](N)C(=O)O; Dap = NC[C@H](N)C(=O)O; Piv = CC(C)(C)C(=O)*

This assay deals with T1, PE-labeled human PD-L1-Ig binding to Jurkat cell line over-expressing human PD-1 (Jurkat-PD-1) (Homo sapiens, UniProt Q15116).
T1 construct: expressed in transfected cells; host or cells: Jurkat
Put plainly: Jurkat-PD-1 Cell Binding High-Content Screening Assay (CBA): Method 1. The note with it: Jurkat-hPD-1 cells, PE-labeled PD-L1-Ig 20 nM final; read-out: Jurkat HPDL1 PD1 IC50 (uM) (Method 1).

T1 sequence (Q15116 25-288): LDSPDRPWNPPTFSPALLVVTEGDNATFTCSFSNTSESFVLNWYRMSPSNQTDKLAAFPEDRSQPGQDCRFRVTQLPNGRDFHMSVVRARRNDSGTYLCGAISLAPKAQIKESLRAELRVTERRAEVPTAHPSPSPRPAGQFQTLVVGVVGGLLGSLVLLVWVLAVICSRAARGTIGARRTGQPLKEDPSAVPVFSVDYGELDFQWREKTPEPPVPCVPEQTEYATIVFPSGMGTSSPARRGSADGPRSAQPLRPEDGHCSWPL

As for `Cc1cccc(C[C@@H]2NC(=O)[C@H](CC(=O)O)NC(=O)[C@H](Cc3ccc(OCC(=O)O)cc3)NC(=O)[C@H](Cc3ccncc3)NC(=O)CSC[C@@H](C(=O)N[C@@H](CN)C(N)=O)NC(=O)[C@H](C(C)O)NC(=O)[C@H](C(C)(C)O)NC(=O)[C@H](CC3CCCCC3)NC(=O)[C@H](CCN)NC(=O)[C@@H](CC(C)C)NC(=O)[C@H](C)N(C)C(=O)[C@H](CCCNC(N)=O)NC(=O)[C@H](Cc3ccc(-c4ccccc4)cc3)NC(=O)[C@H](Cc3ccc(OCC(=O)O)cc3)NC2=O)c1` (stereo partly drawn) [Compound 2168] ({CH2CO}-[4Pal]Y(Carboxymethyl)D[Phe(3-Me)]Y(Carboxymethyl)[Bip][Cit][NMeA][dL][Dab][Cha][Val(3-OH)][Thr(3ξ)]C[Dap]-NH2; thioether N-14), the half-inhibitory concentration (IC50) turned out to be 0.03 µM.

On to `Cc1cccc(C[C@@H]2NC(=O)[C@H](CC(=O)O)NC(=O)[C@H](Cc3ccc(OCC(=O)O)cc3)NC(=O)[C@H](Cc3ccncc3)NC(=O)CSC[C@@H](C(=O)N[C@@H](CCNC(=O)C(C)(C)C)C(N)=O)NC(=O)[C@H]([C@@H](C)O)NC(=O)[C@H](C(C)C)NC(=O)[C@H](CC3CCCCC3)NC(=O)[C@H](CCN)NC(=O)[C@@H](CC(C)C)NC(=O)[C@H](C)N(C)C(=O)[C@H](Cc3ccc(OCC(=O)O)cc3)NC(=O)[C@H](Cc3ccc(-c4ccccc4)cc3)NC(=O)[C@H](Cc3ccc(OCC(=O)O)cc3)NC2=O)c1` [Compound 1867] ({CH2CO}-[4Pal]Y(Carboxymethyl)D[Phe(3-Me)]Y(Carboxymethyl)[Bip]Y(Carboxymethyl)[NMeA][dL][Dab][Cha]VTC[Dab](Piv)-NH2; thioether N-14), for which the IC50 was 0.03 µM. Then `CC(C)C[C@@H]1NC(=O)[C@H](CCN)NC(=O)[C@@H](CC(C)C)NC(=O)[C@H](C)N(C)C(=O)[C@H](CCCNC(=N)N)NC(=O)[C@H](Cc2ccc(-c3ccccc3)cc2)NC(=O)[C@H](C(C)C)NC(=O)[C@H](Cc2c[nH]c3ccccc23)NC(=O)[C@H](CC(=O)O)NC(=O)[C@H](CCc2ccc(O)cc2)NC(=O)[C@H](CC(N)=O)NC(=O)CSC[C@@H](C(=O)N[C@@H](C)C(N)=O)NC(=O)[C@H]([C@@H](C)O)NC(=O)[C@H](C(C)C)NC1=O` [Compound 1354] ({CH2CO}-N[hTyr]DWV[Bip]R[NMeA][dL][Dab]LVTCA-NH2; thioether N-14), with 0.02 µM.

As for `Cc1cccc(C[C@@H]2NC(=O)[C@H](CC(=O)O)NC(=O)[C@H](Cc3ccc(O)cc3)NC(=O)[C@H](CC(N)=O)NC(=O)CSC[C@@H](C(N)=O)NC(=O)[C@H]([C@@H](C)O)NC(=O)[C@H](C(C)C)NC(=O)[C@H](CC(C)C)NC(=O)[C@H](CCN)NC(=O)[C@@H](CC(C)C)NC(=O)[C@H](C)N(C)C(=O)[C@H](CCCNC(N)=O)NC(=O)[C@H](Cc3ccc(-c4ccccc4)cc3)NC(=O)[C@H](C(C)C)NC2=O)c1` [Compound 1641] ({CH2CO}-NYD[Phe(3-Me)]V[Bip][Cit][NMeA][dL][Dab]LVTC-NH2; thioether N-14), the IC50 came to 0.14 µM. Then `CC(C)C[C@@H]1NC(=O)[C@H](CCCNC(=N)N)NC(=O)[C@@H](CC(C)C)NC(=O)[C@H](C)N(C)C(=O)[C@H](CCCNC(=N)N)NC(=O)[C@H](Cc2ccc(-c3ccccc3)cc2)NC(=O)[C@H](C(C)C)NC(=O)[C@H](Cc2c[nH]c3ccccc23)NC(=O)[C@H](CC(=O)O)NC(=O)[C@H](Cc2ccc(O)c([N+](=O)[O-])c2)NC(=O)[C@H](Cc2ccccc2)NC(=O)CSC[C@@H](C(=O)N[C@@H](C)C(N)=O)NC(=O)[C@H]([C@@H](C)O)NC(=O)[C@H](C(C)C)NC1=O` [Compound 1095] ({CH2CO}-F[Tyr(3-NO2)]DWV[Bip]R[NMeA][dL]RLVTCA-NH2; thioether N-14), with 0.15 µM.

As for `CC(C)C[C@@H]1NC(=O)[C@H](Cc2c[nH]c3ccccc23)NC(=O)[C@H](CC(=O)O)NC(=O)[C@H](Cc2ccc(C(=O)O)cc2)NC(=O)[C@H](Cc2ccc(OCC(=O)O)cc2)NC(=O)CSC[C@@H](C(=O)N[C@@H](C)C(N)=O)NC(=O)[C@H](CO)NC(=O)[C@H](C(C)C)NC(=O)[C@H](CC(C)C)NC(=O)[C@H](CC(N)=O)NC(=O)[C@@H](C)NC(=O)[C@H](C)N(C)C(=O)[C@H](C(C)C)NC(=O)[C@H](Cc2ccc(-c3ccccc3)cc2)NC1=O` [Compound 1560] ({CH2CO}-Y(Carboxymethyl)[Phe(4-COOH)]DWL[Bip]V[NMeA][dA]NLVSCA-NH2; thioether N-14), the concentration for half-maximal inhibition (IC50) turned out to be 0.02 µM. Then `CC(C)C[C@@H]1NC(=O)[C@H](CCN)NC(=O)[C@@H](CC(C)C)NC(=O)[C@H](C)N(C)C(=O)[C@H](C(C)C)NC(=O)[C@H](Cc2ccc(-c3ccccc3)cc2)NC(=O)[C@H](C(C)C)NC(=O)[C@H](Cc2c[nH]c3ccccc23)NC(=O)[C@H](CC(=O)O)NC(=O)[C@H](Cc2ccc(C#N)cc2)NC(=O)[C@H](CN)NC(=O)CSC[C@@H](C(=O)N[C@@H](C)C(N)=O)NC(=O)[C@H]([C@@H](C)O)NC(=O)[C@H](C(C)C)NC1=O` [Compound 1435] ({CH2CO}-[Dap][Phe(4-CN)]DWV[Bip]V[NMeA][dL][Dab]LVTCA-NH2; thioether N-14), with 0.05 µM; and `Cc1cccc(C[C@@H]2NC(=O)[C@H](CC(=O)O)NC(=O)[C@H](Cc3ccc(OCC(=O)O)cc3)NC(=O)[C@H](CN)NC(=O)CSC[C@@H](C(N)=O)NC(=O)[C@H]([C@@H](C)O)NC(=O)[C@H](C(C)C)NC(=O)[C@H](CC3CCCCC3)NC(=O)[C@H](CCN)NC(=O)[C@@H](CC(C)C)NC(=O)[C@@H]3CCCCN3C(=O)[C@H](Cc3ccc(OCC(=O)O)cc3)NC(=O)[C@H](Cc3ccc(-c4ccccc4)cc3)NC(=O)[C@H](Cc3ccc(OCC(=O)O)cc3)NC2=O)c1` [Compound 1891] ({CH2CO}-[Dap]Y(Carboxymethyl)D[Phe(3-Me)]Y(Carboxymethyl)[Bip]Y(Carboxymethyl)[Pip][dL][Dab][Cha]VTC-NH2; thioether N-14), with 0.15 µM; and `Cc1cccc(C[C@@H]2NC(=O)[C@H](CC(=O)O)NC(=O)[C@H](Cc3ccc(OCC(=O)O)cc3)NC(=O)[C@H](C(C)O)NC(=O)CSC[C@@H](C(=O)N[C@@H](CCN)C(N)=O)NC(=O)[C@H](CO)NC(=O)[C@H](C(C)(C)O)NC(=O)[C@H](CC3CCCCC3)NC(=O)[C@H](CCN)NC(=O)[C@@H](CC(C)C)NC(=O)[C@H](C)N(C)C(=O)[C@H](Cc3ccc(OCC(=O)O)cc3)NC(=O)[C@H](Cc3ccc(-c4ccccc4)cc3)NC(=O)[C@H](Cc3ccc(OCC(=O)O)cc3)NC2=O)c1` (stereo partly drawn) [Compound 2149] ({CH2CO}-[Thr(3ξ)]Y(Carboxymethyl)D[Phe(3-Me)]Y(Carboxymethyl)[Bip]Y(Carboxymethyl)[NMeA][dL][Dab][Cha][Val(3-OH)]SC[Dab]-NH2; thioether N-14), with 0.02 µM. Regarding `CC(C)C[C@@H]1NC(=O)[C@H](CCN)NC(=O)[C@@H](CC(C)C)NC(=O)[C@H](C)N(C)C(=O)[C@H](CCC(=O)O)NC(=O)[C@H](Cc2ccc(-c3ccccc3)cc2)NC(=O)[C@H](C(C)C)NC(=O)[C@H](Cc2c[nH]c3ccccc23)NC(=O)[C@H](CC(=O)O)NC(=O)[C@H](Cc2ccc(OCC(=O)O)cc2)NC(=O)[C@H](CC(N)=O)NC(=O)CSC[C@@H](C(=O)N[C@@H](C)C(N)=O)NC(=O)[C@H]([C@@H](C)O)NC(=O)[C@H](C(C)C)NC1=O` [Compound 1390] ({CH2CO}-NY(Carboxymethyl)DWV[Bip]E[NMeA][dL][Dab]LVTCA-NH2; thioether N-14), the IC50 was determined as 0.11 µM. Then `Cc1cccc(C[C@@H]2NC(=O)[C@H](CC(=O)O)NC(=O)[C@H](Cc3ccc(OCC(=O)O)cc3)NC(=O)[C@H](CN)NC(=O)CSC[C@@H](C(=O)N[C@@H](CCN)C(N)=O)NC(=O)[C@H]([C@@H](C)O)NC(=O)[C@H](C(C)C)NC(=O)[C@H](CC3CCCCC3)NC(=O)[C@H](CCNC(=O)C(C)(C)C)NC(=O)[C@@H](CC(C)C)NC(=O)[C@H](C)N(C)C(=O)[C@H](Cc3ccc(OCC(=O)O)cc3)NC(=O)[C@H](Cc3ccc(-c4ccccc4)cc3)NC(=O)[C@H](Cc3ccc(OCC(=O)O)cc3)NC2=O)c1` [Compound 1864] ({CH2CO}-[Dap]Y(Carboxymethyl)D[Phe(3-Me)]Y(Carboxymethyl)[Bip]Y(Carboxymethyl)[NMeA][dL][Dab](Piv)[Cha]VTC[Dab]-NH2; thioether N-14), with 0.04 µM; and `CC(C)C[C@@H]1NC(=O)[C@H](CCN)NC(=O)[C@@H](CC(C)C)NC(=O)[C@H](C)N(C)C(=O)[C@H](CCCNC(=N)N)NC(=O)[C@H](Cc2ccc(-c3ccccc3)cc2)NC(=O)[C@H](C(C)C)NC(=O)[C@H](Cc2c[nH]c3ccccc23)NC(=O)[C@H](CC(=O)O)NC(=O)[C@H](Cc2ccc(O)cc2)NC(=O)[C@H](CCCCNC(=N)N)NC(=O)CSC[C@@H](C(=O)N[C@@H](C)C(N)=O)NC(=O)[C@H]([C@@H](C)O)NC(=O)[C@H](C(C)C)NC1=O` [Compound 1344] ({CH2CO}-[hArg]YDWV[Bip]R[NMeA][dL][Dab]LVTCA-NH2; thioether N-14), with 0.07 µM; and `CC(C)C[C@@H]1NC(=O)[C@H](CCN)NC(=O)[C@@H](CC(C)C)NC(=O)[C@H](C)N(C)C(=O)[C@H](Cc2ccccc2)NC(=O)[C@H](Cc2ccc(-c3ccccc3)cc2)NC(=O)[C@H](C(C)C)NC(=O)[C@H](Cc2c[nH]c3ccccc23)NC(=O)[C@H](CC(=O)O)NC(=O)[C@H](Cc2ccc(O)cc2)NC(=O)[C@H](CC(N)=O)NC(=O)CSC[C@@H](C(=O)N[C@@H](C)C(N)=O)NC(=O)[C@H]([C@@H](C)O)NC(=O)[C@H](C(C)C)NC1=O` [Compound 1272] ({CH2CO}-NYDWV[Bip]F[NMeA][dL][Dab]LVTCA-NH2; thioether N-14), with 0.16 µM. On to `CC(C)C[C@@H]1NC(=O)[C@H](CC(N)=O)NC(=O)[C@@H](CC(C)C)NC(=O)[C@H](C)N(C)C(=O)[C@H](CCC(=O)O)NC(=O)[C@H](Cc2ccc(-c3ccccc3)cc2)NC(=O)[C@H](C(C)C)NC(=O)[C@H](Cc2c[nH]c3ccccc23)NC(=O)[C@H](CC(=O)O)NC(=O)[C@H](Cc2ccc(O)cc2)NC(=O)[C@H](Cc2ccncc2)NC(=O)CSC[C@@H](C(N)=O)NC(=O)[C@H]([C@@H](C)O)NC(=O)[C@H](C(C)C)NC1=O` [Compound 1631] ({CH2CO}-[4Pal]YDWV[Bip]E[NMeA][dL]NLVTC-NH2; thioether N-14), for which the IC50 stood at 0.11 µM.
